Where a name gives a salt, the structure may show the parent alone.
Tested on: Influenza, Ann Arbor virus
Assay: Influenza Ann Arbor in mice, oral; schedule by table; late read day 5 (Tables 15, 25, 29, 30), 6 (18, 20, 22, 23, 26, 27, 28, 54), 7 (14, 19, 21, 24, 53, 56), 8 (16, 17, 51), 9 (11, 55)
Format: in vivo, mouse
Details: for Toxic: oral, mouse

| Structure (SMILES) | No. animals surviving after 5-7 days (total dose 30 pg) | Survivors (total dose 30 pg) | No. animals surviving after 5-7 days (total dose 300 pg) | Survivors (total dose 300 pg) | No. animals surviving after 5-7 days (total dose 3 ng) | Survivors (total dose 3 ng) | No. animals surviving after 5-7 days (total dose 30 ng) | Survivors (total dose 30 ng) | No. animals surviving after 5-7 days (total dose 300 ng) | Survivors (total dose 300 ng) | No. animals surviving after 5-7 days (total dose 3 μg) | Survivors (total dose 3 μg) | No. animals surviving after 5-7 days (total dose 30 μg) | Survivors (total dose 30 μg) | No. animals surviving after 5-7 days (total dose 300 μg) | Survivors (total dose 300 μg) | No. animals surviving after 5-7 days (total dose 3 mg) | Survivors (total dose 3 mg) | also measured |
| --- | --- | --- | --- | --- | --- | --- | --- | --- | --- | --- | --- | --- | --- | --- | --- | --- | --- | --- | --- |
| CN(C)N [1,1-dimethylhydrazine] | 5 | 0 | 3 | 0 | 3 | 1 | 2 | 0 | 3 | 0 | 2 | 0 | 1 | 1 | 3 | 0 | 2 | 0 | – |
| CNNC [1,2-dimethylhydrazine, dihydrochloride] | 6 | 1 | 2 | 0 | 3 | 0 | 3 | 1 | 5 | 0 | 3 | 0 | 4 | 0 | 6 | 0 | 3 | 0 | – |
| CCC(C)=NNC(=N)N.O=[N+]([O-])O [1-(sec-butylideneamino)guanidine nitrate, 1-(sec-butylideneamino)guanidine, nitrate] | – | – | – | – | 0 | 0 | 1 | 0 | 3 | 2 | 0 | 0 | 2 | 2 | 0 | 0 | – | – | – |
| C=CCNC(=S)NN=C1Cc2ccccc2C1 [2-Indanone, 4-allylthiosemicarbazone] | 4 | 0 | 7 | 0 | 4 | 0 | 6 | 0 | 6 | 0 | 2 | 0 | 6 | 0 | 2 | 0 | 4 | 1 | – |
| NC(=S)NN=C1Cc2ccccc2C1 [2-indanone, thiosemicarbazone] | 8 | 1 | 8 | 0 | 5 | 0 | 9 | 0 | 8 | 1 | 8 | 1 | 8 | 0 | 6 | 0 | – | – | Toxic (total dose 3 mg): Toxic |
| CCCC(C)=NNC(N)=S [2-pentanone, thiosemicarbazone] | 2 | 0 | 2 | 0 | 2 | 0 | 2 | 0 | 1 | 0 | 1 | 0 | 1 | 1 | 0 | 0 | – | – | No. animals surviving after 7 days (total dose 15 ng): 3; Survivors (total dose 15 ng): 0; No. animals surviving after 7 days (total dose 22.5 ng): 0; Survivors (total dose 22.5 ng): 0; No. animals surviving after 7 days (total dose 75 ng): 1; Survivors (total dose 75 ng): 0; No. animals surviving after 7 days (total dose 150 ng): 0; Survivors (total dose 150 ng): 0; No. animals surviving after 7 days (total dose 225 ng): 3; Survivors (total dose 225 ng): 0; No. animals surviving after 7 days (total dose 750 ng): 2; Survivors (total dose 750 ng): 0; No. animals surviving after 7 days (total dose 1.5 μg): 2; Survivors (total dose 1.5 μg): 0; No. animals surviving after 7 days (total dose 2.25 μg): 1; Survivors (total dose 2.25 μg): 1 |
| CCC(CC)=NNC(N)=S [3-pentanone, thiosemicarbazone] | 2 | 0 | 1 | 0 | 3 | 0 | 0 | 0 | 3 | 0 | 6 | 1 | 7 | 0 | 4 | 0 | – | – | No. animals surviving after 7 days (total dose 12 μg): 1; Survivors (total dose 12 μg): 0; No. animals surviving after 7 days (total dose 18 μg): 1; Survivors (total dose 18 μg): 1; No. animals surviving after 7 days (total dose 24 μg): 0; Survivors (total dose 24 μg): 0; No. animals surviving after 7 days (total dose 60 μg): 1; Survivors (total dose 60 μg): 0; No. animals surviving after 7 days (total dose 90 μg): 3; Survivors (total dose 90 μg): 0; No. animals surviving after 7 days (total dose 120 μg): 1; Survivors (total dose 120 μg): 1; No. animals surviving after 7 days (total dose 150 μg): 2; Survivors (total dose 150 μg): 1 |
| CNN [Methylhydrazine, methylhydrazine] | 2 | 1 | 3 | 0 | 3 | 1 | 4 | 1 | 1 | 0 | 3 | 0 | 3 | 1 | 1 | 0 | – | – | Toxic (total dose 3 mg): Toxic |
| NC(N)=S [Thiourea] | 2 | 0 | 4 | 0 | 3 | 1 | 4 | 0 | 2 | 0 | 7 | 0 | 3 | 0 | 6 | 1 | 5 | 0 | – |
| NC(N)=NN=Cc1c(Cl)cccc1Cl [[(2,6-dichlorobenzylidine)amino]guanidine acetate] | 4 | 0 | 2 | 1 | 4 | 0 | 1 | 0 | 1 | 0 | 2 | 0 | 3 | 0 | 1 | 0 | – | – | Toxic (total dose 3 mg): Toxic |
| CCOC(=O)CC(C)=NNC(N)=S [acetoacetic acid, ethyl ester, thiosemicarbazone] | 8 | 0 | 4 | 0 | 5 | 0 | 5 | 0 | 4 | 0 | 6 | 0 | 8 | 0 | 7 | 0 | 5 | 0 | – |
| CC(C)=NNC(N)=S [acetone, thiosemicarbazone] | 3 | 1 | 2 | 0 | 2 | 0 | 2 | 0 | 3 | 0 | 5 | 0 | 2 | 0 | 3 | 0 | – | – | – |
| Cc1ccccc1NC(=S)NN=C1CCCC1 [cyclopentanone, 3-thio-4-o-tolyl-semicarbazone] | 6 | 0 | 9 | 0 | 9 | 0 | 9 | – | 6 | 0 | 6 | 0 | – | 0 | 9 | 0 | 8 | 0 | – |

Reference: patent US4027039A (priority 1975, dated 1977)
